# Measured values reported in article PMC8318231, “Rate-of-Kill (RoK) assays to triage large compound sets for Chagas disease drug discovery: Application to GSK Chagas Box” (PLoS Neglected Tropical Diseases, 2021).
# How the values were obtained:
# [1] = test system: T. cruzi Tulahuen trypomastigotes; assay: T. cruzi trypomastigote assay (Cell Titer-Glo viability, ATP luminescence); type: cell-based, Trypanosoma cruzi; conditions: for Trypomastigotes pIC50 48 hours: 48 hours incubation; for Trypomastigotes pIC50 48 hours / Trypomastigotes pIC50 72 hours: pIC50 = -log10 IC50 in molar units; for Trypomastigotes pIC50 72 hours: 72 hours incubation; for 48 pIC50 / 72 pIC50: trypomastigote assay; for 48 pIC50: 48 h; for 72 pIC50: 72 h
# Method: T. cruzi Tulahuen trypomastigotes obtained from the supernatants of LLC-MK2 infected cultures in a 225 cm^2 T-Flasks harvested between days 5 and 8 of infection. Trypomastigotes (5 × 10^4 per well) in 50 μl of DMEM/ 2% FBS were dispensed into white 384 plates (Greiner) pre-stamped with 250 nl compound a single-shot final concentration of 5 μM, or in dose response. […] Cell Titer-Glo cell viability solution (Promega) was added to each well (50 μL) incubated at room temperature for 10 min and luminescence read by Envision plate reader (Perkin Elmer). This assay quantifies the amount of ATP present which is directly proportional to the number of metabolically active cells. All data were normalised (100% effect control for no cells and 0% effect control for DMSO). This assay was adapted from MacLean et al., 2018 [22].
# TcCYP51 = conditions: formerly reported; cited from earlier work
Compound,Trypomastigotes pIC50 48 hours [1],Trypomastigotes pIC50 72 hours [1],48 pIC50 ([1]; figure 1A),72 pIC50 ([1]; figure 1A),72 pIC50 ([1]; figure 1B),CYP51 pIC50 (TcCYP51)
CN(C)c1ncc(-c2cncn2CCOc2ccc(Cl)cc2)cn1 [TCMDC-143415],4.5,4.5,4.5,4.5,4.5,7.3
O=C(Cn1cnc2cc([N+](=O)[O-])ccc2c1=O)NCCc1ccc(Cl)cc1Cl [TCMDC-143519],5.9,6.1,–,–,–,< 4
Cn1nc([N+](=O)[O-])nc1Oc1ccc(C(=O)c2ccccc2)cc1 [TCMDC-143126],6,6.1,–,–,–,< 4
CC(Cn1ccnc1)NC(=O)C1CC1c1cccc(Cl)c1Cl (stereo not drawn) [TCMDC-143506],< 4.3,< 4.3,< 4.3,< 4.3,< 4.3,6.9
CC(Cn1ccnc1)NC(=O)COc1ccc(Cl)c(Cl)c1 (stereo not drawn) [TCMDC-143479],< 4.3,< 4.3,< 4.3,< 4.3,< 4.3,7.2
Cc1ccc2sc(NC(=O)Cn3cnc([N+](=O)[O-])n3)nc2c1 [TCMDC-143284],5.6,5.3,–,–,–,< 4
Cl.Cl.NC(=O)c1ccc(-c2cccc(OCCN3CCN(C4CCCCC4)CC3)c2)cc1 [TCMDC-143598],< 4.3,< 4.3,< 4.3,< 4.3,< 4.3,4.4
COc1ccc([N+](=O)[O-])cc1NC(=O)Nc1cccc(Cl)c1 [TCMDC-143528],5.6,< 4.3,–,–,–,< 4
Cc1ccc(NC(=O)c2ccc(Cl)c(NC(=O)c3ccc([N+](=O)[O-])cc3)c2)cc1 [TCMDC-143150],5.8,5.6,–,–,–,< 4
Cc1ccc(C)c(-n2nnnc2Sc2nc([N+](=O)[O-])nn2C)c1 [TCMDC-143530],5.3,5.4,–,–,–,< 4
O=C(c1cnn(-c2ccccc2)n1)N1CCCC(n2ccnc2)C1 (stereo not drawn) [TCMDC-143492],< 4.3,< 4.3,< 4.3,< 4.3,< 4.3,7.1
Cc1cc2ncn(-c3ccc([N+](=O)[O-])cc3C#N)c2cc1C [TCMDC-143546],5.7,5.9,–,–,–,< 4
Cc1ccc(NC(=O)C(C)n2nc([N+](=O)[O-])c(Br)c2C)cc1Cl (stereo not drawn) [TCMDC-143338],5.5,5.3,–,–,–,< 4
CCCC(=O)N(Cc1ccccn1)c1nc2ccccc2s1 [TCMDC-143599],< 4.3,< 4.3,< 4.3,< 4.3,< 4.3,7.3
O=C(Nc1ncc([N+](=O)[O-])s1)C1CC1 [TCMDC-143417],6.1,6,–,–,–,< 4
CC(=O)Nc1ccc(-c2csc(NC(=O)c3ccc([N+](=O)[O-])s3)n2)cc1 [TCMDC-143164],6.4,6.6,–,–,–,5.2
C=CCn1nc([N+](=O)[O-])nc1Oc1ccc(Cl)cc1Cl [TCMDC-143151],6.1,6.3,–,–,–,4.7
O=C(NCc1nnc2n1CCCCC2)c1ccc(-c2ccc(F)cc2)o1 [TCMDC-143446],< 4.3,4.7,–,–,–,4.1
Cn1nc([N+](=O)[O-])nc1N1CCCCC1 [TCMDC-143088],< 4.3,< 4.3,< 4.3,< 4.3,< 4.3,< 4
